# Experimental data taken from patent publication US6969616B2 (Kaneka Corporation, priority 2000, dated 2005).
# System: enterotoxins
# Type: binding, Staphylococcus aureus
structure (smiles),measurement,value
CCCCCCCCN [n-octylamine],adsorptive affinity for enterotoxins,phenomenal increase in the adsorptive affinity for enterotoxins
